Test results reported in the supplement of paper PMC10307832.

Key:
Assay in all cases: relative viability (nuclei count vs DMSO), 5 days (fraction); higher = more cells survive
[1] = test system: ChaGo-K-1
Summary of the method: (§1)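 Dosing by pin tool came one day after lung cancer cell lines were seeded in 1536-well plates, using either one drug or a fixed anchor-drug dose plus five library-drug doses (not always all listed) in √10 steps. After 5 days, nuclei were counted on 4× images. Relative viability is treated-well nuclei count divided by vehicle-well nuclei count, and values are medians of duplicate plates.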

[2] = test system: HARA
Summary of the method: as §1

[3] = test system: NCI-H441
Summary of the method: as §1

[4] = test system: HCC-827
Summary of the method: as §1

[5] = test system: LCLC-97TM1
Summary of the method: as §1

[6] = test system: NCI-H1437
Summary of the method: as §1

[7] = test system: NCI-H322M
Summary of the method: as §1

[8] = test system: EMC-BAC-2
Summary of the method: as §1

[9] = test system: PC-3 [JPC-3]
Summary of the method: as §1

[10] = test system: NCI-H460
Summary of the method: as §1

[11] = test system: NCI-H661
Summary of the method: as §1

[12] = test system: EKVX
Summary of the method: as §1

[13] = test system: H3255
Summary of the method: as §1

[14] = test system: NCI-H1915
Summary of the method: as §1

[15] = test system: HCC-15
Summary of the method: as §1

[16] = test system: NCI-H1793
Summary of the method: as §1

[17] = test system: LU99A
Summary of the method: as §1

[18] = test system: NCI-H1944
Summary of the method: as §1

[19] = test system: LC-2-ad
Summary of the method: as §1

[20] = test system: NCI-H1792
Summary of the method: as §1

[21] = test system: NCI-H2126
Summary of the method: as §1

[22] = test system: SK-LU-1
Summary of the method: as §1

[23] = test system: NCI-H23
Summary of the method: as §1

Cc1cnc(-c2cnc(NCCNc3ccc(C#N)cn3)nc2-c2ccc(Cl)cc2Cl)[nH]1 + CS(=O)(=O)N1CCN(Cc2cc3nc(-c4cccc5[nH]ncc45)nc(N4CCOCC4)c3s2)CC1 [Pictilisib] (partner 1 µM)
relative viability ([1]; first compound 0.08 µM): 0.612 | relative viability ([1]; first compound 0.253 µM): 0.828 | relative viability ([1]; first compound 0.8 µM): 0.375 | relative viability ([1]; first compound 2.53 µM): 0.623 | relative viability ([2]; first compound 0.08 µM): 0.398 | relative viability ([2]; first compound 0.253 µM): 0.414 | relative viability ([2]; first compound 0.8 µM): 0.433 | relative viability ([2]; first compound 2.53 µM): 0.454 | relative viability ([3]; first compound 0.08 µM): 0.486 | relative viability ([3]; first compound 0.253 µM): 0.376 | relative viability ([3]; first compound 0.8 µM): 0.428 | relative viability ([3]; first compound 2.53 µM): 0.553 | relative viability ([4]; first compound 0.08 µM): 1.02 | relative viability ([4]; first compound 0.8 µM): 0.951 | relative viability ([4]; first compound 2.53 µM): 0.813 | relative viability ([5]; first compound 0.08 µM): 0.231 | relative viability ([5]; first compound 0.253 µM): 0.234 | relative viability ([5]; first compound 0.8 µM): 0.158 | relative viability ([5]; first compound 2.53 µM): 0.172 | relative viability ([6]; first compound 0.08 µM): 0.521 | relative viability ([6]; first compound 0.253 µM): 0.399 | relative viability ([6]; first compound 0.8 µM): 0.483 | relative viability ([6]; first compound 2.53 µM): 0.379 | relative viability ([7]; first compound 0.08 µM): 0.59 | relative viability ([7]; first compound 0.253 µM): 0.523 | relative viability ([7]; first compound 0.8 µM): 0.413 | relative viability ([7]; first compound 2.53 µM): 0.538 | relative viability ([8]; first compound 0.08 µM): 0.579 | relative viability ([8]; first compound 0.253 µM): 0.525 | relative viability ([8]; first compound 0.8 µM): 0.515 | relative viability ([8]; first compound 2.53 µM): 0.567 | relative viability ([9]; first compound 0.08 µM): 0.772 | relative viability ([9]; first compound 0.253 µM): 0.666 | relative viability ([9]; first compound 0.8 µM): 0.798 | relative viability ([9]; first compound 2.53 µM): 0.79 | relative viability ([10]; first compound 0.08 µM): 0.243 | relative viability ([10]; first compound 0.253 µM): 0.378 | relative viability ([10]; first compound 0.8 µM): 0.318 | relative viability ([10]; first compound 2.53 µM): 0.504 | relative viability ([11]; first compound 0.08 µM): 0.476 | relative viability ([11]; first compound 0.253 µM): 0.395 | relative viability ([11]; first compound 0.8 µM): 0.476 | relative viability ([11]; first compound 2.53 µM): 0.393 | relative viability ([12]; first compound 0.08 µM): 0.462 | relative viability ([12]; first compound 0.253 µM): 0.394 | relative viability ([12]; first compound 0.8 µM): 0.374 | relative viability ([12]; first compound 2.53 µM): 0.392 | relative viability ([13]; first compound 0.08 µM): 0.554 | relative viability ([13]; first compound 0.253 µM): 0.463 | relative viability ([13]; first compound 0.8 µM): 0.469 | relative viability ([13]; first compound 2.53 µM): 0.476 | relative viability ([14]; first compound 0.08 µM): 0.958 | relative viability ([14]; first compound 0.8 µM): 0.939 | relative viability ([14]; first compound 2.53 µM): 1.01 | relative viability ([15]; first compound 0.08 µM): 0.681 | relative viability ([15]; first compound 0.253 µM): 0.669 | relative viability ([15]; first compound 0.8 µM): 0.746 | relative viability ([15]; first compound 2.53 µM): 0.739 | relative viability ([16]; first compound 0.08 µM): 0.315 | relative viability ([16]; first compound 0.253 µM): 0.351 | relative viability ([16]; first compound 0.8 µM): 0.412 | relative viability ([16]; first compound 2.53 µM): 0.596 | relative viability ([17]; first compound 0.08 µM): 0.314 | relative viability ([17]; first compound 0.253 µM): 0.348 | relative viability ([17]; first compound 0.8 µM): 0.348 | relative viability ([17]; first compound 2.53 µM): 0.41 | relative viability ([18]; first compound 0.08 µM): 0.342 | relative viability ([18]; first compound 0.8 µM): 0.334 | relative viability ([18]; first compound 2.53 µM): 0.38 | relative viability ([19]; first compound 0.08 µM): 0.489 | relative viability ([19]; first compound 0.8 µM): 0.441 | relative viability ([19]; first compound 2.53 µM): 0.468 | relative viability ([20]; first compound 0.08 µM): 0.34 | relative viability ([20]; first compound 0.253 µM): 0.268 | relative viability ([20]; first compound 0.8 µM): 0.25 | relative viability ([20]; first compound 2.53 µM): 0.385 | relative viability ([21]; first compound 0.08 µM): 0.512 | relative viability ([21]; first compound 0.253 µM): 0.468 | relative viability ([21]; first compound 0.8 µM): 0.494 | relative viability ([21]; first compound 2.53 µM): 0.559 | relative viability ([22]; first compound 0.08 µM): 0.701 | relative viability ([22]; first compound 0.253 µM): 0.604 | relative viability ([22]; first compound 0.8 µM): 0.623 | relative viability ([22]; first compound 2.53 µM): 0.754 | relative viability ([23]; first compound 0.08 µM): 0.511 | relative viability ([23]; first compound 0.253 µM): 0.56 | relative viability ([23]; first compound 0.8 µM): 0.535 | relative viability ([23]; first compound 2.53 µM): 0.613
